In US11667602B2, “Compounds and their use” (AstraZeneca AB, priority 2020, dated 2023):
In brackets after ≈: the same amount, converted by molar mass.

How the values were obtained:
[1] = Rat Hepatocyte Stability (Test E); assay type: in vitro ADME; conditions: rat, hepatocytes, geometric mean if run multiple times
How it was run: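 Intrinsic clearance in rat hepatocytes, expressed as μl/min/10^6 cells, following the literature integrated DMPK panel method. Repeat determinations combined as geometric mean.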

[2] = Human Plasma Protein Binding (Test B); assay type: in vitro ADME; conditions: fraction unbound (fu)
How it was run: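 Values given as % free (fu) in human plasma, using the method of Wernevik et al. (2020). For compounds tested more than once, the arithmetic mean is given.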

[3] = Human Hepatocyte Stability (Test D); assay type: in vitro ADME; conditions: human, cryopreserved pooled human hepatocytes (LiverPool 10-Donor), geometric mean if run multiple times
How it was run: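 Intrinsic clearance (μL/min/10^6 cells), derived as kV/N from the log-linear loss of parent compound. Compound incubated at 37 °C with cryopreserved pooled human hepatocytes, 0.25×10^6 cells in 0.25 mL L-15; dosing solution 100 μM in acetonitrile. Singlicate incubations, cassette LC-MS; repeats reported as geometric mean.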

[4] = Human Liver Microsomal Stability (Test C); assay type: in vitro ADME; conditions: human, liver microsomes
How it was run: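 CLint (μl/min/mg protein) derived from compound depletion in human liver microsomes following a published standardized early-DMPK protocol; replicate determinations given as arithmetic mean.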

human RXFP1 = target: T1, human RXFP1 (Homo sapiens, UniProt Q9HBX9); experiment: RXFP1 Hu cAMP (Test A); assay type: cell-based; design: expressed in transfected cells; host or cells: Jump-In T-REx CHO-K1 cells (ThermoFisher), induced with 10 ng/ml doxycycline for 24 h; conditions: RXFP1 Hu cAMP; for EC50: read-out: Test A EC50
T1 sequence (Q9HBX9 1-757): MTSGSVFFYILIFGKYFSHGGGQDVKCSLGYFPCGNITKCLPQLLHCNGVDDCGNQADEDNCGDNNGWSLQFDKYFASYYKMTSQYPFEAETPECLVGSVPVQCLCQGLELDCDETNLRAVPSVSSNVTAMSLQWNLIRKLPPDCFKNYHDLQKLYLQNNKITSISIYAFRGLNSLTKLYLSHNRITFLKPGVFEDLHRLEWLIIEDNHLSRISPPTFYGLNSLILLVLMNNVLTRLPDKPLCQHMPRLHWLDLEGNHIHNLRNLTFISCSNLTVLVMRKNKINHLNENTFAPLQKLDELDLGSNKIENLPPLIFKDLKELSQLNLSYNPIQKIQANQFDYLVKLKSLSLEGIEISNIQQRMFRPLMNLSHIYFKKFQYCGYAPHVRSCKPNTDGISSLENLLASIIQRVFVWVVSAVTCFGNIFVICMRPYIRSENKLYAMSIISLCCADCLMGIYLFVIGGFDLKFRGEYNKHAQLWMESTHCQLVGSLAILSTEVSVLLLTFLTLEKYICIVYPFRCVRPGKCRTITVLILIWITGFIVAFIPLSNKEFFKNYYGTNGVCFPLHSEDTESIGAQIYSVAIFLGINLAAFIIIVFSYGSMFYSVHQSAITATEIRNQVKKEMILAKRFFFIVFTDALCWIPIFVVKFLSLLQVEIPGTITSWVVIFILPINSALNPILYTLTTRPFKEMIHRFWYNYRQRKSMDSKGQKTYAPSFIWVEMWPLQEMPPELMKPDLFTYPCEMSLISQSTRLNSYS
How it was run: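 Cells: CHO-K1 stably carrying human RXFP1, expressed after 24 h 10 ng/ml doxycycline; 0.5 mM IBMX final, HTRF detection after 2 h at room temperature.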

Solubility (Test F) = assay type: physicochemical; conditions: arithmetic mean if run multiple times
Experimental: The assay was conducted according to the Solubility Assay described in pages 164-167 of Wernevik, J. et al., “A Fully Integrated Assay Panel for Early Drug Metabolism and Pharmacokinetics Profiling”, Assay and Drug Development Technologies, 2020, 18(4), 157-179. Data are reported in Table 36 as solubility ([…]. Where the assay was run multiple times for the same compound, the arithmetic mean is reported.

SMILES | hepatocyte CLint [1] | Test B Human Plasma Protein Binding (% free) [2] | hepatocyte CLint at 1 µM [3] | microsomal CLint [4] | Test A Sinf (human RXFP1) | EC50 (human RXFP1) | solubility (Solubility (Test F))
CCC(C)(C)CNC(=O)[C@H]1[C@@H]2CC[C@@H](C2)[C@H]1NC(=O)c1cc(O[C@H]2CC[C@@](C)(C(=O)O)CC2)c(F)cc1OC [Example 37, (1S,4s)-4-(5-(((1S,2R,3S,4R)-3-((2,2-Dimethylbutyl)carbamoyl)bicyclo[2.2.1]heptan-2-yl)carbamoyl)-2-fluoro-4-methoxyphenoxy)-1-methylcyclohexane-1-carboxylic acid] | 22 µL/min/1e6 cells | 3.8 % free | 4.8 µL/min/1e6 cells | 27 µL/min/mg | 103% | 20 nM | 830 µM (≈ 454 µg/mL)
COc1cc(F)c(O[C@H]2CC[C@@](C)(C(=O)O)CC2)cc1C(=O)N[C@@H]1[C@H]2CC[C@H](C2)[C@@H]1C(=O)NC(C(C)C)C(C)C [Example 40] | 52 µL/min/1e6 cells | 3.4 % free | 30 µL/min/1e6 cells | 190 µL/min/mg | 97% | 810 nM | 2.5 µM (≈ 1.4 µg/mL)
CCC(CC)CNC(=O)[C@H]1[C@@H]2CC[C@@H](C2)[C@H]1NC(=O)c1cc(OC2CCC(C)(C(=O)O)CC2)c(F)cc1OC (stereo partly shown) [Example 43] | 25 µL/min/1e6 cells | 1.3 % free | 5 µL/min/1e6 cells | 33 µL/min/mg | 106% | 83 nM | 770 µM (≈ 421 µg/mL)
COc1cc(F)c(O[C@H]2CC[C@@](C)(C(=O)O)CC2)cc1C(=O)N[C@@H]1[C@H]2CC[C@H](C2)[C@@H]1C(=O)NCC1(C)CCCCC1 [Example 44] | 35 µL/min/1e6 cells | 2.1 % free | 17 µL/min/1e6 cells | 110 µL/min/mg | 107% | 16 nM | 300 µM (≈ 172 µg/mL)
COc1cc(F)c(O[C@H]2CC[C@@](C)(C(=O)O)CC2)cc1C(=O)N[C@@H]1[C@H]2CC[C@H](C2)[C@@H]1C(=O)NCC(C)(C)C#N [Example 47] | 17 µL/min/1e6 cells | 21 % free | < 1 µL/min/1e6 cells | < 3 µL/min/mg | 111% | 200 nM | > 1000 µM
CCC(C)(C)CNC(=O)[C@H]1CCC[C@H]1NC(=O)c1cc(O[C@H]2CC[C@@](C)(C(=O)O)CC2)c(F)cc1OC [Example 58, (1S,4s)-4-(5-(((1R,2S)-2-((2,2-Dimethylbutyl)carbamoyl)cyclopentyl)carbamoyl)-2-fluoro-4-methoxyphenoxy)-1-methylcyclohexane-1-carboxylic acid] | 19 µL/min/1e6 cells | 7 % free | 1.9 µL/min/1e6 cells | 6.5 µL/min/mg | 99% | 260 nM | > 1000 µM
COc1cc(C#N)c(O[C@H]2CC[C@@](C)(C(=O)O)CC2)cc1C(=O)N[C@@H]1[C@H]2CC[C@H](C2)[C@@H]1C(=O)NC(C)(C)CF [Example 77] | 12 µL/min/1e6 cells | 21 % free | 3.7 µL/min/1e6 cells | 4 µL/min/mg | 108% | – | 650 µM (≈ 353 µg/mL)
COc1cc(C#N)c(O[C@H]2CC[C@@](C)(C(=O)O)CC2)cc1C(=O)N[C@@H]1[C@H]2CC[C@H](C2)[C@@H]1C(=O)NC1(C)CCC1 [Example 90] | 18 µL/min/1e6 cells | 14 % free | < 1 µL/min/1e6 cells | < 3 µL/min/mg | 111% | 140 nM | 800 µM (≈ 430 µg/mL)
COc1cc(C#N)c(O[C@H]2CC[C@@](C)(C(=O)O)CC2)cc1C(=O)N[C@@H]1[C@H]2CC[C@H](C2)[C@@H]1C(=O)NCC1(C)CC1 [Example 98] | 22 µL/min/1e6 cells | 13 % free | 4.9 µL/min/1e6 cells | 8.7 µL/min/mg | 133% | 55 nM | 810 µM (≈ 436 µg/mL)
COc1cc(C#N)c(O[C@H]2CC[C@@](C)(C(=O)O)CC2)cc1C(=O)N[C@@H]1[C@H]2CC[C@H](C2)[C@@H]1C(=O)NC(C)(C)C [Example 99] | 11 µL/min/1e6 cells | 20 % free | < 1 µL/min/1e6 cells | 6.2 µL/min/mg | 113% | 140 nM | 920 µM (≈ 484 µg/mL)
COc1cc(C#N)c(O[C@H]2CC[C@@](C)(C(=O)O)CC2)cc1C(=O)N[C@@H]1[C@H]2CC[C@H](C2)[C@@H]1C(=O)NCC(F)(F)C(F)(F)F [Example 102] | 14 µL/min/1e6 cells | 12 % free | 1.9 µL/min/1e6 cells | 4.4 µL/min/mg | 122% | 160 nM | 820 µM (≈ 493 µg/mL)
COc1cc(C#N)c(O[C@H]2CC[C@@](C)(C(=O)O)CC2)cc1C(=O)N[C@@H]1[C@H]2CC[C@H](C2)[C@@H]1C(=O)NC12CC(C1)C2 [Example 141, (1S,4s)-4-(5-(((1S,2R,3S,4R)-3-(Bicyclo[1.1.1]pentan-1-ylcarbamoyl)-bicyclo[2.2.1]heptan-2-yl)carbamoyl)-2-cyano-4-methoxyphenoxy)-1-methylcyclohexane-1-carboxylic acid] | 17 µL/min/1e6 cells | 16 % free | < 1 µL/min/1e6 cells | 8.3 µL/min/mg | 107% | 74 nM | 920 µM (≈ 493 µg/mL)
COc1cc(F)c(O[C@H]2CC[C@@](C)(C(=O)O)CC2)cc1C(=O)Nc1ccccc1C(=O)NCC(C)(C)C [Example 142, (1s,4s)-4-(2-Fluoro-4-methoxy-5-((2-(neopentylcarbamoyl)phenyl)-carbamoyl)phenoxy)-1-methylcyclohexane-1-carboxylic acid] | 9.8 µL/min/1e6 cells | 1.2 % free | 3.3 µL/min/1e6 cells | < 3 µL/min/mg | 129% | 320 nM | 6.5 µM (≈ 3.34 µg/mL)
COc1cc(F)c(O[C@H]2CC[C@@](C)(C(=O)O)CC2)cc1C(=O)Nc1ccccc1C(=O)NCC1(C)CCC1 [Example 143, (1s,4s)-4-(2-Fluoro-4-methoxy-5-((2-(((1-methylcyclobutyl)methyl)-carbamoyl)phenyl)carbamoyl)phenoxy)-1-methylcyclohexane-1-carboxylic acid] | 24 µL/min/1e6 cells | 0.68 % free | 6.9 µL/min/1e6 cells | < 3 µL/min/mg | 130% | – | 1.6 µM (≈ 0.843 µg/mL)
COc1cc(F)c(O[C@H]2CC[C@@](C)(C(=O)O)CC2)cc1C(=O)N[C@@H]1[C@H]2CC[C@H](C2)[C@@H]1C(=O)NCC1(F)CCOCC1 [Example 146, (1S,4s)-4-(2-Fluoro-5-(((1S,2R,3S,4R)-3-(((4-fluorotetrahydro-2H-pyran-4-yl)methyl)carbamoyl)bicyclo[2.2.1]heptan-2-yl)carbamoyl)-4-methoxyphenoxy)-1-methylcyclohexane-1-carboxylic acid] | 14 µL/min/1e6 cells | 24 % free | < 1 µL/min/1e6 cells | < 3 µL/min/mg | 87% | > 1900 nM | 1000 µM (≈ 579 µg/mL)
